The values that follow are results of earlier work, collected in paper PMC2874326 (Bioconjugate chemistry, 2010).

This data set has as its system cells. Particulars: relative to Tat and unmodified poly-arginine cell penetrating peptides.

Turning to C14-βAla-(Arg)7-Cys(SH)-NH2 [MPAP], the “enhancement of peptide entry into cells by myristoylation” value was “several-fold”.
